According to US20040019091A1, “Triazole derivatives and pharmaceutical compositions comprising them” (priority 2000, published 2004):

What was measured:
human CCK2 receptor = biological target: T1, human CCK2 receptor (Homo sapiens, UniProt P32239); assay: in vitro binding to CCK2 receptor; details: read-out: IC50 (affinity, human CCK2 receptor)
T1 sequence (P32239 1-447): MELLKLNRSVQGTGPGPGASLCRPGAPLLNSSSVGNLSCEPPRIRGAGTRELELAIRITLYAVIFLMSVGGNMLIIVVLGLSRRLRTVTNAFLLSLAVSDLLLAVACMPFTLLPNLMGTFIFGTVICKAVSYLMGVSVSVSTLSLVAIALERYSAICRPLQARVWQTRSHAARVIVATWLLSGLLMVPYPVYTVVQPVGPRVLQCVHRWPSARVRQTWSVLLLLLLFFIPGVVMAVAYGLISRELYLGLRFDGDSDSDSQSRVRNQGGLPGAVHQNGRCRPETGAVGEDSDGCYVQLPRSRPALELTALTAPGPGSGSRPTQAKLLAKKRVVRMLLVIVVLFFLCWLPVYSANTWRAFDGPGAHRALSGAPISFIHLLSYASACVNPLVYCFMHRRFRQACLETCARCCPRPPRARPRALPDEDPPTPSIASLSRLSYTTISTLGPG
Method: their selectivity for the CCK2 receptor;
(§1) The compounds of formula (I) underwent studies of in vitro binding to CCK1 and CCK2 receptors, using the method described in Europ. J. Pharmacol., 1993, 232, 13-19. […] The agonist activity of the compounds towards CCK1 receptors was evaluated in vitro in 3T3 cells expressing the human CCK1 receptor, by measuring the mobilization of the intracellular calcium ([Ca^++]i), according to a technique derived from that of Lignon M F et al., Eur. J. Pharmacol., 1993, 245, 241-245. The calcium concentration [Ca^++]i is evaluated with Fura-2 by the double excitation wavelength method. The ratio of the fluorescence emitted at two wavelengths gives the concentration of [Ca^++]i, after calibration (Grynkiewiez G. et al., J. Biol. Chem., 1985, 260, 3440-3450).

human CCK1 receptor = biological target: T2, human CCK1 receptor (Homo sapiens, UniProt P32238); assay: in vitro binding to CCK1 receptor ([125I]-CCK displacement)
T2 construct: expressed in transfected cells; host or cells: 3T3 cells
T2 sequence (P32238 1-428): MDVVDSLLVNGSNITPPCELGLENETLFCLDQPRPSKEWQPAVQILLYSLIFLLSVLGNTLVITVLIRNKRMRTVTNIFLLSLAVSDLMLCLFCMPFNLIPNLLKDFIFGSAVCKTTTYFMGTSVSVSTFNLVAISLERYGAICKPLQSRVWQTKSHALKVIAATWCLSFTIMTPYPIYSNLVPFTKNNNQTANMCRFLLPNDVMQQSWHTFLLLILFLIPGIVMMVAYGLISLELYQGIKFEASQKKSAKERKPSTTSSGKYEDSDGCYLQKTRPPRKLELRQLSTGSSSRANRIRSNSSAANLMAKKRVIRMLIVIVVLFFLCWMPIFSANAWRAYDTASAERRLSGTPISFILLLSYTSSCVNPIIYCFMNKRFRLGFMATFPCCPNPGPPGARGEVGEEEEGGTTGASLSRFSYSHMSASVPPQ
Method: their potentiality for displacing [^125I]-CCK from its binding sites present in rat pancreatic membranes (CCK1 receptor) or 3T3 cells expressing recombinant human CCK1 receptor;
as §1

[1] = biological target: T3, 3T3 cells expressing the human CCK1 receptor (Homo sapiens, UniProt P32238); assay: mobilization of intracellular calcium ([Ca++]i), Fura-2; assay type: cell-based; details: read-out: EC50 [Ca++]i release
T3 construct: expressed in transfected cells; host or cells: 3T3 cells
T3 sequence (P32238 1-428): T2 sequence (P32238 1-428)
Method: their CCK1 receptor agonist property, by way of their capacity to induce mobilization of intracellular calcium in vitro in 3T3 cells expressing the human CCK1 receptor;
as §1

gastric emptying = gastric emptying of a charcoal meal in the mouse, oral route; assay type: in vivo, Female Swiss albino CD1 mice; details: p.o., 60 minutes before charcoal meal, read-out: ED50 inhibition of gastric emptying
Method: their agonist effect by the oral route on gastric drainage in the mouse.
An in vivo study of the agonist effect of the compounds on gastric emptying was carried out as follows. Female Swiss albino CD1 mice (20-25 g) are placed on a solid fast for 18 hours. On the day of the experiment, the products are administered orally 60 minutes before the administration of a charcoal meal (0.3 ml per mouse of a suspension in water of 10% charcoal powder, 5% gum arabic and 1% carboxymethylcellulose). The mice are sacrificed 5 minutes later by cervical dislocation, and the gastric emptying is defined as the presence of charcoal in the intestine beyond the pyloric sphincter (Europ. J. Pharmacol., 1993, 232, 13-19).

Structure (SMILES): CCNCC.COc1cc(-c2nc(NC(=O)c3cc4c(C)c(C)c(OC)cc4n3CCC(=O)O)nn2CCC2CCCCC2)c(OC)cc1C
- melting point: 143 °C (dec.)

Structure (SMILES): COc1cc(-c2nc(NC(=O)c3cc4c(C)c(C)c(OC)cc4n3CCC(=O)[O-])nn2CCC2CCCCC2)c(OC)cc1C.[K+] [Example 1, 3-[2-[[[1-(2-cyclohexylethyl)-5-(2,5-dimethoxy-4-methylphenyl)-1H-1,2,4-triazol-3-yl]amino]carbonyl]-6-methoxy-4,5-dimethyl-1H-indol-1-yl]propionic acid, Potassium Salt]
- IC50 (human CCK2 receptor): 234 nM
- IC50 (human CCK1 receptor; human CCK1 receptor, read-out: IC50 (affinity, human CCK1 receptor)): 0.4 nM
- selectivity (affinity CCK1 receptor versus affinity of CCK2 receptor) (human CCK1 receptor; human CCK1 versus human CCK2): > 500 fold
- EC50 [1]: ~1 nM

Structure (SMILES): COc1cc(-c2nc(NC(=O)c3cc4c(C)c(C)c(OC)cc4n3CCC(=O)O)nn2CCC2CCCCC2)c(OC)cc1C.NCCO [Example 3, 3-[2-[[[1-(2-cyclohexylethyl)-5-(2,5-dimethoxy-4-methylphenyl)-1H-1,2,4-triazol-3-yl]amino]carbonyl]-6-methoxy-4,5-dimethyl-1H-indol-1-yl]propionic acid ethanolamine salt]
- ED50 (gastric emptying): 0.027 mg/kg
